Results reported in ChEMBL document CHEMBL1130763, “Nonpeptide glycoprotein IIb/IIIa inhibitors: substituted quinazolinediones and quinazolinones as potent fibrinogen receptor antagonists” (Bioorg Med Chem Lett, 1998).

Species on record: Homo sapiens
Assay: In vitro inhibition of platelet aggregation by measuring its effect on the ADP-stimulated aggregation of human platelets
Format: functional

SMILES | IC50 [nM]
CCCCS(=O)(=O)NC(CCCc1ccc2c(c1)c(=O)n(CCC1CCNCC1)c(=O)n2Cc1ccccc1)C(=O)O (configuration not stated) | 160
CCCCS(=O)(=O)NC(CNC(=O)c1ccc2[nH]c(=O)n(CCC3CCNCC3)c(=O)c2c1)C(=O)O (configuration not stated) | 210
CCCCS(=O)(=O)NC(CC#Cc1ccc2c(c1)c(=O)n(CCC1CCNCC1)c(=O)n2Cc1ccncc1)C(=O)O (configuration not stated) | 74
CCCCS(=O)(=O)N[C@@H](Cc1ccc(OCCCCC2CCNCC2)cc1)C(=O)O | 15
CCCCS(=O)(=O)N[C@@H](CNC(=O)c1ccc2c(c1)C(=O)N(CCC1CCNCC1)C2)C(=O)O | 9
CCCCS(=O)(=O)NC(CCCc1ccc2c(c1)c(=O)n(CCC1CCNCC1)c(=O)n2Cc1ccncc1)C(=O)O (configuration not stated) | 100
CCCCS(=O)(=O)NC(CCCc1ccc2[nH]c(=O)n(CCC3CCNCC3)c(=O)c2c1)C(=O)O (configuration not stated) | 160

The next lines start with the values.

IC50 [nM] | SMILES
43 | CCCCS(=O)(=O)NC(CC#Cc1ccc2nc(C)n(CCC3CCNCC3)c(=O)c2c1)C(=O)O (configuration not stated)
37 | CCCCS(=O)(=O)NC(CC#Cc1ccc2[nH]c(=O)n(CCC3CCNCC3)c(=O)c2c1)C(=O)O (configuration not stated)
140 | CCCCS(=O)(=O)NC(CCCc1ccc2c(c1)c(=O)n(CCC1CCNCC1)c(=O)n2C)C(=O)O (configuration not stated)
67 | CCCCS(=O)(=O)NC(CC#Cc1ccc2c(c1)c(=O)n(CCC1CCNCC1)c(=O)n2C)C(=O)O (configuration not stated)
61 | CCCCS(=O)(=O)NC(CC#Cc1ccc2c(c1)c(=O)n(CCC1CCNCC1)c(=O)n2Cc1ccccc1)C(=O)O (configuration not stated)
